Test system: Hara cells derived from human lung cancer
Experiment: Bone metastasis model: Hara cells transplanted into the heart of nude mice, preventive effect of OCT
Assay type: in vivo
Text: Preventive effects of OCT on bone metastases were studied using a bone metastasis model prepared with Hara cells derived from human lung cancer.
A test of preventive effects of OCT on bone metastases of Hara cells was started on the 20th day after 5×10^5 Hara cells were transplanted into the heart of nude mice, at which time the body weight of the animals began to slightly decrease but neither rise in Ca nor clear bone metastasis image on soft X-rays was observed. On that day, the animals were grouped by body weight, and a vehicle (n=9) or 1 μg/kg of OCT (n=9) was orally administered to each animal 4 to 5 times per week for six weeks (29 times in total). At different instants during the administration period, the body weight and Ca level in blood were measured and soft X-ray photographs were taken.

[1] = after 15 doses on the 22nd day after starting the test, 1 μg/kg OCT orally, n=9
[2] = after 20 doses on the 29th day after starting the test, 1 μg/kg OCT orally, n=9
[3] = first day of the test, 1 μg/kg OCT orally, n=9

C=C1/C(=C\C=C2/CCC[C@@]3(C)C2CC[C@@H]3[C@H](C)OCCC(C)(C)O)C[C@@H](O)C[C@@H]1O (stereo partly drawn) [OCT, 22-oxa-1α, 25-dihydroxyvitamin D3]
effect on rise in Ca level in blood (1 μg/kg OCT orally vs vehicle group): tendency to suppress the rise in Ca level in blood | death (1 μg/kg OCT orally, n=9, in the vehicle group four animals died by the 42nd day): no death was observed | effect on body weight decrease (29th day, 1 μg/kg OCT orally vs vehicle group, p<0.05): significantly suppressed body weight decrease | Ca level in blood [1]: 1.37 ± 0.04 mM | body weight [1]: 24.51 ± 1.27 g | Ca level in blood [2]: 1.34 ± 0.16 mM | body weight [2]: 25.00 ± 1.20 g | bone metastasis image on soft X-ray photographs (during the administration period (six weeks), 1 μg/kg OCT orally, n=9, vehicle group: four animals in total): no bone metastasis image was observed | Ca level in blood [3]: 1.32 ± 0.04 mM | body weight [3]: 23.61 ± 1.57 g

From patent publication US6869940B2, “Malignant tumor metastasis inhibitors” (Chugai Seiyaku Kabushiki Kaisha, priority 1995, dated 2005)
